Experimental data from patent publication US20250163078A1, “IMIDAZOPYRIDAZINE DERIVATIVE, AND PREPARATION METHOD THEREFOR, PHARMACEUTICAL COMPOSITION THEREOF AND USE THEREOF” (SHANGHAI SIMR BIOTECHNOLOGY CO., LTD., priority 2022, published 2025).
Read-outs that look alike come from different tables or passages of the source.

How the values were obtained:
[1] = molecular target: T1, α1-GABAA receptor (Homo sapiens, UniProt P14867+P18507); assay: Whole-cell patch-clamp electrophysiological test of positive allosteric modulation, α1-GABAAR-HEK293 cells; format: cell-based; details: read-out: Positive allosteric modulation activity on α1-GABAAR
T1 construct: expressed in transfected cells
From the text: (§1) An α subunit, a β subunit, and a γ subunit are essential for the formation of a complete functional GABAA receptor. […] The α1-GABAAR-HEK293 cell model simultaneously expressed the α1 subunit (protein sequence available in GenBank with an accession No.: NM_000806.5), the β3 subunit (protein sequence available in GenBank with an accession No.: NM_000814.5), and the γ2 subunit (protein sequence available in GenBank with an accession No.: NM_000816.3). The α2-GABAAR-HEK293 cell model simultaneously expressed the α2 subunit (protein sequence available in GenBank with an accession No.: NM_000807.4), the β3 subunit (protein sequence available in GenBank with an accession No.: NM_000814.5), and the γ2 subunit (protein sequence available in GenBank with an accession No.: NM_000816.3).
(§2) The above cell lines were subcultured. The α2-GABAAR-HEK293 cells were expanded for assay of the benzodiazepine (BZD) site affinity of compounds for GABAA receptors.
(§3) The positive regulation activity of the test drugs on the α1-GABAA receptor and the α2-GABAA receptor was detected by the electrophysiological method. The specific method was as follows:
(§4) Compound concentration setting: the final concentration of the compounds used for screening was 100 nM. […] The components of the extracellular solution (ECS) for electrophysiology were as follows: 150 mM NaCl, 5 mM KCl, 2.5 mM CaCl2, 1 mM MgCl2, 10 mM HEPES, and 10 mM glucose (pH 7.4); the formulation of the intracellular solution (ICS) of electrodes for electrophysiology was as follows: 140 mM CsCl, 11 mM EGTA, 10 mM HEPES, 2 mM CaCl2, 1 mM MgCl2, 4 mM MgATP, and 2 mM TEA (pH 7.3). GABA (γ-aminobutyric acid) powder was prepared into a mother liquor with pure water, which was then diluted in ECS; the compounds were first prepared into 4 mM mother liquors with dimethyl sulfoxide and then gradually diluted to corresponding concentrations in GABA-ECS. The solutions were all prepared freshly prior to the electrophysiological test.
(§5) Electrophysiological signal acquisition was performed using an EPC 10 amplifier and PatchMaster software (HEKA) or an Axon700B amplifier and Clampex software (AXON).
(§6) The recording electrode was made by pulling borosilicate glass, with an electrode resistance of 4-6 MΩ. Extracellular administration was performed using the ALA-VC-8PG™ system. A single, independently growing cell was selected. After the glass electrode formed a good seal with the cell, the membrane was ruptured to form the whole-cell configuration. The cell membrane potential was clamped at −60 mV and recorded in Gap-free mode. During the test, the extracellular solution was first applied extracellularly for about 20 s. After the baseline (Iprebaseline) stabilized, the extracellular solution was switched to GABA-ECS. At this time, the current caused by GABA (Igaba) could be detected. After about 10-20 s, when the current stabilized, the extracellular solution was switched to a mixed solution of the compound and GABA-ECS. At this point, the current caused by both the compound and GABA (Itreatment) could be detected. Finally, the solution was switched to the extracellular solution, and the test was terminated after recording for 20-40 s.
(§7) The current values at each stage were calculated based on the average value of the current after stabilization under the corresponding conditions. We defined the control current as Igaba−Iprebaseline, and the current after compound treatment as Itreatment−Iprebaseline. The allosteric modulation activity of the compounds was expressed as a percentage, calculated by the following formula: functional activity=[(Itreatment−Igaba)/(Igaba−Iprebaseline)]×100%.

[2] = molecular target: T2, α2-GABAA receptor (Homo sapiens, UniProt P18507+P47869); assay: Radioligand (3H-flunitrazepam) competitive binding assay at the BZD site
T2 construct: expressed in transfected cells
From the text: as §1, §2
The affinity of the compounds for the α2-GABAA receptor was determined by competing with ^3H-flunitrazepam (isotope ^3H-labelled flunitrazepam) for binding to the BZD site on the membrane proteins of HEK293 cells stably expressing the human α2-GABAA receptor.
Membrane preparation: The cells were suspended in 50 mM Tris-HCl buffer (pH=7.4), homogenized 10 times (20 s for each time) with a homogenizer on ice, and then centrifuged at 4° C. at 1000 g for 10 min. The supernatant was taken. The above steps were repeated. The supernatant was centrifuged (33800 g; Thermo, rotor: A27-8×50) at 4° C. for 60 min. The pellet was resuspended in Tris buffer (50 mM Tris-HCl, 10 mM MgCl2, 0.5 mM EDTA, and 10% glycerol). The protein content was determined (BCA (bicinchoninic acid) protein quantification assay based on the copper ion reduction method, with a BCA kit purchased from Pierce (Annoron (Beijing) Biotechnology Co., Ltd.)), and 1 mL aliquots were prepared and stored at −80° C.
Radioligand competitive binding assay: This assay was performed in a 200 μL system (96-well plate) containing 100 μL of cell membranes. The concentration of ^3H-flunitrazepam was 1 nM, and the concentrations of the test compounds were in the range of […]. Flumazenil was used as a control. To each low control (LC) well was added 1 μL of 2 mM flumazenil (the final concentration of 10 μM), and to each high control (HC) well was added 1 μL of dimethyl sulfoxide. The final concentration of the target membrane protein was […]. All sample stock solutions of test compounds were 10 mM solutions in dimethyl sulfoxide. All the samples were diluted to a concentration of 0.2 mM with dimethyl sulfoxide, and then subjected to a 4-fold serial dilution to give a total of 8 working concentration gradients. The 96-well plate was sealed with a plate sealing membrane and then incubated on a shaker at room temperature for 1 h. Meanwhile, a GF/C filter plate was soaked in a plate soaking buffer (0.3% PEI (polyethyleneimine, purchased from: Sigma-Aldrich, model: P314), stored at 4° C.) for at least 0.5 h. After the binding incubation was completed, the cells were harvested onto the GF/C filter plate using a cell harvester and washed 4 times with a washing buffer (50 mM Tris-HCl, pH 7.4, stored at 4° C.). After drying in an oven at 50° C. for 1 h, the dried GF/C filter plate was bottom-sealed. The residual radioactivity on the filter membrane was detected by liquid scintillation counting. Scintillation fluid was added at 50 µL/well, and then the plate was sealed. Readings were taken using Microbeta^2 (microplate counter, purchased from: PerkinElmer, model: CNLL0153). The inhibitory activity of the test samples on the binding of ^3H-flunitrazepam to the GABAA receptor membrane protein was calculated.

[3] = molecular target: T2, α2-GABAA receptor; assay: Whole-cell patch-clamp electrophysiological test of positive allosteric modulation, α2-GABAAR-HEK293 cells; format: cell-based; details: read-out: Positive allosteric modulation activity on α2-GABAAR
From the text: as §1, §2, §3, §4, §5, §6, §7

[4] = compound 100 nM, GABA about EC2-4, normalised to positive compound CVL-865 (=100%), negative value = reverse allosteric modulation
[5] = membranes of HEK293 cells stably expressing human α2-GABAA receptor (α2β3γ2), 1 nM 3H-flunitrazepam, Ki calculated from IC50, read-out: α2 Ki
[6] = compound 100 nM, GABA 0.10-0.11 M [sic] (about EC70.8), normalised to positive compound CVL-865 (=100%)

| SMILES | activation at 0.1 µM [1, 4] [%] | Ki [2, 5] [nM] | activation at 0.1 µM [3, 6] [%] | activation at 0.1 µM [1] [%] | Ki [2] [nM] | activation at 0.1 µM [3] [%] |
| --- | --- | --- | --- | --- | --- | --- |
| CCn1cnc2c(-c3ccc(F)c(-c4ccn5c(C6CCOC(C)(C)C6)nnc5c4OC)c3)cnnc21 (centres unmarked) [Example 16, 4-(3-(3-(2,2-Dimethyltetrahydro-2H-pyran-4-yl)-8-methoxy-[1,2,4]triazolo[4,3-a]pyridin-7-yl)-4-fluorophenyl)-7-ethyl-7H-imidazo[4,5-c]pyridazine] | -56 | 8.17 | 95 |  |  |  |
| CCn1cnc2c(-c3ccc(F)c(-c4ccn5c(C)nnc5c4OC)c3)cnnc21 [Example 32, 7-Ethyl-4-(4-fluoro-3-(8-methoxy-3-methyl-[1,2,4]triazolo[4,3-a]pyridin-7-yl)phenyl)-7H-imidazo[4,5-c]pyridazine] | -39 | 2.89 | 102 |  |  |  |
| CCn1cnc2c(-c3ccc(F)c(-c4cn5cc(C6(F)CC6)nc5cc4OC)c3)cnnc21 [Example 12, 7-Ethyl-4-(4-fluoro-3-(2-(1-fluorocyclopropyl)-7-methoxyimidazo[1,2-a]pyridin-6-yl)phenyl)-7H-imidazo[4,5-c]pyridazine] | 32 | 5.79 | 104 |  |  |  |
| CCn1cnc2c(-c3ccc(F)c(-c4ccn5c(C6COC6)nnc5c4OC)c3)cnnc21 [Example 28, 7-Ethyl-4-(4-fluoro-3-(8-methoxy-3-(oxetan-3-yl)-[1,2,4]triazolo[4,3-a]pyridin-7-yl)phenyl)-7H-imidazo[4,5-c]pyridazine] | 19 | 5.12 | 126 |  |  |  |
| CCn1cnc2c(-c3ccc(F)c(-c4ccn5c(C(C)C)nnc5c4OC)c3)cnnc21 [Example 29, 7-Ethyl-4-(4-fluoro-3-(8-methoxy-3-isopropyl-[1,2,4]triazolo[4,3-a]pyridin-7-yl)phenyl)-7H-imidazo[4,5-c]pyridazine] | -51 | 6.6 | 156 |  |  |  |
| CCn1cnc2c(-c3ccc(F)c(-c4ccn5c(C6CC6)nnc5c4OC)c3)cnnc21 [Example 38, 4-(3-(3-Cyclopropyl-8-methoxy-[1,2,4]triazolo[4,3-a]pyridin-7-yl)-4-fluorophenyl)-7-ethyl-7H-imidazo[4,5-c]pyridazine] | -14 | 6.53 | 94 |  |  |  |
| CCn1cnc2c(-c3ccc(F)c(-c4ccn5c(C6CC6)nnc5c4COC)c3)cnnc21 [Example 1, 4-(3-(3-Cyclopropyl-8-(methoxymethyl)-[1,2,4]triazolo[4,3-a]pyridin-7-yl)-4-fluorophenyl)-7-ethyl-7H-imidazo[4,5-c]pyridazine] | 70 | 10.5 | 129 |  |  |  |
| CCn1cnc2c(-c3ccc(F)c(-c4ccn5c(C6CC(OC)C6)nnc5c4OC)c3)cnnc21 (centres unmarked) [Example 6, 7-Ethyl-4-(4-fluoro-3-(8-methoxy-3-(3-methoxycyclobutyl)-[1,2,4]triazolo[4,3-a]pyridin-7-yl)phenyl)-7H-imidazo[4,5-c]pyridazine] | -16 |  | 118 |  |  |  |
| CCn1cnc2c(-c3ccc(F)c(-c4ccn5c(C6CCC6)nnc5c4OC)c3)cnnc21 [Example 17, 4-(3-(3-Cyclobutyl-8-methoxy-[1,2,4]triazolo[4,3-a]pyridin-7-yl)-4-fluorophenyl)-7-ethyl-7H-imidazo[4,5-c]pyridazine] | -49 | 2.85 | 100 |  |  |  |
| CCn1cnc2c(-c3ccc(F)c(-c4cn5cc(C)nc5cc4OC)c3)cnnc21 [Example 50, 7-Ethyl-4-(4-fluoro-3-(7-methoxy-2-methylimidazo[1,2-a]pyridin-6-yl)phenyl)-7H-imidazo[4,5-c]pyridazine] |  |  |  | 29 | 9.89 | 103 |

More lines, main results first:

| activation at 0.1 µM [1, 4] [%] | Ki [2, 5] [nM] | activation at 0.1 µM [3, 6] [%] | SMILES | activation at 0.1 µM [1] [%] | Ki [2] [nM] | activation at 0.1 µM [3] [%] |
| --- | --- | --- | --- | --- | --- | --- |
| 44 | 16.5 | 82 | CCn1cnc2c(-c3ccc(F)c(-c4c(OC)ccc5nccn45)c3)cnnc21 [Example 49, 7-Ethyl-4-(4-fluoro-3-(6-methoxyimidazo[1,2-a]pyridin-5-yl)phenyl)-7H-imidazo[4,5-c]pyridazine] |  |  |  |
| 59 | 0.11 | 178 | CCn1cnc2c(-c3ccc(F)c(-c4cn5cc(C(F)F)nc5cc4OC)c3)cnnc21 [Example 41, 4-(3-(2-(Difluoromethyl)-7-methoxyimidazo[1,2-a]pyridin-6-yl)-4-fluorophenyl)-7-ethyl-7H-imidazo[4,5-c]pyridazine] |  |  |  |
| 40 | 11.4 | 123 | CCn1cnc2c(-c3ccc(F)c(-c4ccn5c(C)nnc5c4COC)c3)cnnc21 [Example 58, 7-Ethyl-4-(4-fluoro-3-(8-(methoxymethyl)-3-methyl-[1,2,4]triazolo[4,3-a]pyridin-7-yl)phenyl)-7H-imidazo[4,5-c]pyridazine] |  |  |  |
| 19 | 8.07 | 99 | CCn1cnc2c(-c3ccc(F)c(-c4cn5ccnc5cc4OC)c3)cnnc21 [Example 52, 7-Ethyl-4-(4-fluoro-3-(7-methoxyimidazo[1,2-a]pyridin-6-yl)phenyl)-7H-imidazo[4,5-c]pyridazine] |  |  |  |
